Data reported in ChEMBL document CHEMBL1250510, “2,3-diarylxanthones as strong scavengers of reactive oxygen and nitrogen species: a structure-activity relationship study” (Bioorg Med Chem, 2010).
The source made the active and inactive calls. The rule behind the calls is not given here.

How the values were obtained:
Type in all cases: functional
[1] = Antioxidant activity assessed as hypocholrous acid scavenging activity by spectrophotometry
[2] = Antioxidant activity assessed as singlet oxygen scavenging activity at 100 uM by spectrophotometry
[3] = Antioxidant activity assessed as peroxyl radical scavenging activity assessed as trolox equivalent by spectrophotometry
[4] = Antioxidant activity assessed as superoxide radical scavenging activity by spectrophotometry
[5] = Antioxidant activity assessed as peroxynitrite scavenging activity by spectrophotometry in presence of NaHCO3
[6] = Antioxidant activity assessed as peroxynitrite scavenging activity by spectrophotometry in absence of NaHCO3
[7] = Antioxidant activity assessed as nitric oxide scavenging activity by spectrophotometry
[8] = Antioxidant activity assessed as hydrogen peroxide scavenging activity at 250 uM by spectrophotometry
[9] = Antioxidant activity assessed as singlet oxygen scavenging activity by spectrophotometry
[10] = Antioxidant activity assessed as nitric oxide scavenging activity at 200 uM by spectrophotometry
[11] = Antioxidant activity assessed as peroxynitrite scavenging activity at 50 uM by spectrophotometry in presence of NaHCO3
[12] = Antioxidant activity assessed as superoxide radical scavenging activity at 25 uM by spectrophotometry
[13] = Antioxidant activity assessed as hydrogen peroxide scavenging activity at 125 uM by spectrophotometry
[14] = Antioxidant activity assessed as peroxynitrite scavenging activity at 50 uM by spectrophotometry in absence of NaHCO3
[15] = Antioxidant activity assessed as peroxyl radical scavenging activity assessed as trolox equivalent at 1 uM by spectrophotometry
[16] = Antioxidant activity assessed as superoxide radical scavenging activity at 200 uM by spectrophotometry
[17] = Antioxidant activity assessed as hydrogen peroxide scavenging activity by spectrophotometry

In the case of `O=c1c2ccccc2oc2cc(-c3ccc(O)c(O)c3)c(-c3ccc(O)c(O)c3)cc12`, the IC50 [1] is reported as 1.2 µM, the IC50 [2] is reported as 2.5 µM and the trolox equivalent [3] is reported as 0.28. It also gave an IC50 [4] of 10.4 µM, an IC50 [5] of 0.17 µM and an IC50 [6] of 0.33 µM. For the same compound, the IC50 [7] was 0.39 µM and the inhibition [8] was 17%.

For `C[C@@H]1O[C@@H](OC[C@H]2O[C@@H](Oc3c(-c4ccc(O)c(O)c4)oc4cc(O)cc(O)c4c3=O)[C@H](O)[C@@H](O)[C@@H]2O)[C@H](O)[C@H](O)[C@H]1O` [RUTIN], the IC50 [7] was 2.53 µM.

Compound `O=S(=O)(O)c1cc(O)c(O)c(S(=O)(=O)O)c1` [TIRON] has an IC50 [4] of 273 µM.

`O=c1c(O)c(-c2ccc(O)c(O)c2)oc2cc(O)cc(O)c12` [QUERCETIN] showed an IC50 [9] of 1.8 µM.

For `O=c1c2ccccc2[se]n1-c1ccccc1` [EBSELEN], the IC50 [5] was 0.5 µM and the IC50 [6] was 2.01 µM.

For `O=c1c2ccccc2oc2cc(-c3ccccc3)c(-c3ccccc3)cc12`, the IC50 [1] was 155 µM, the inhibition [2] was 27% and the inhibition [10] was 39%. For the same compound, the inhibition [11] was 29%, the inhibition [12] was “inactive” and the inhibition [13] was “inactive”. For the same compound, the inhibition [14] was 48% and the inhibition [15] was “inactive”.

Compound `O=c1c2ccccc2oc2cc(-c3ccccc3)c(-c3ccc(O)c(O)c3)cc12` has an IC50 [1] of 15.7 µM, an IC50 [2] of 6 µM and a trolox equivalent [3] of 0.76. It also gave an IC50 [4] of 28.1 µM, an IC50 [5] of 0.4 µM and an IC50 [6] of 0.54 µM. For the same compound, the IC50 [7] was 1.88 µM and the inhibition [8] was 9%.

`O=c1c2ccccc2oc2cc(-c3ccc(O)c(O)c3)c(-c3ccc(O)cc3)cc12` showed an IC50 [1] of 7.5 µM, an IC50 [2] of 6.8 µM and a trolox equivalent [3] of 0.83. For the same compound, the IC50 [4] was 31.3 µM, the IC50 [5] was 0.22 µM and the IC50 [6] was 0.89 µM. For the same compound, the IC50 [7] was 0.62 µM and the inhibition [8] was 12%.

`O=c1c2ccccc2oc2cc(-c3ccccc3)c(-c3ccc(O)cc3)cc12` gave an IC50 [1] of 72.1 µM, an IC50 [2] of 80 µM and a trolox equivalent [3] of 1.05. The inhibition [13] was “inactive”, the IC50 [5] was 1.55 µM and the IC50 [6] was 1.8 µM. The IC50 [7] was 175 µM and the inhibition [16] was “inactive”.

Compound `O=c1c2ccccc2oc2cc(-c3ccc(O)cc3)c(-c3ccc(O)c(O)c3)cc12` has an IC50 [1] of 14.7 µM, an IC50 [2] of 3.3 µM and a trolox equivalent [3] of 0.88. The IC50 [4] was 20.3 µM, the IC50 [5] was 0.26 µM and the IC50 [6] was 0.78 µM. The IC50 [7] was 0.42 µM and the inhibition [8] was 14%.

For `O=c1c2ccccc2oc2cc(-c3ccc(O)cc3)c(-c3ccccc3)cc12`, the IC50 [1] was 53.8 µM, the IC50 [2] was 68.8 µM and the inhibition [10] was 41%. For the same compound, the trolox equivalent [3] was 2.08, the inhibition [13] was “inactive” and the IC50 [5] was 2.66 µM. The IC50 [6] was 2 µM and the inhibition [16] was “inactive”.

`O=C(O)CCCC[C@@H](S)CCS` [DIHYDROLIPOIC ACID] gave an IC50 [1] of 2.3 µM.

Work on `O=c1c2ccccc2oc2cc(-c3ccc(O)cc3)c(-c3ccc(O)cc3)cc12` yielded an IC50 [1] of 22.4 µM, an IC50 [2] of 58.4 µM and a trolox equivalent [3] of 2.88. For the same compound, the inhibition [13] was “inactive”, the IC50 [4] was 166 µM and the IC50 [5] was 1.72 µM. The IC50 [6] was 0.97 µM and the IC50 [7] was 108 µM.

`O=C1O[C@H]([C@@H](O)CO)C(O)=C1O` [ASCORBIC ACID] gave an IC50 [17] of 602 µM and an IC50 [3] of 0.22 µM.

`O=c1c2ccccc2oc2cc(-c3ccc(O)c(O)c3)c(-c3ccccc3)cc12` gave an IC50 [1] of 10.8 µM, an IC50 [2] of 4.5 µM and a trolox equivalent [3] of 0.84. The IC50 [4] was 76 µM, the IC50 [5] was 0.37 µM and the IC50 [6] was 0.67 µM. For the same compound, the IC50 [7] was 1.22 µM and the inhibition [8] was 9%.
